In PubChem BioAssay (NCI):
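Results reflect a 48-hour exposure of cells in 96-well plates to compound at five concentrations. At the TGI there is no net growth.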

Key:
Assay in all cases: NCI anticancer screen, dose series, 48 h
[1] = tested on: UACC-62 melanoma
[2] = tested on: SNB-75 CNS
[3] = tested on: OVCAR-3 ovarian
[4] = tested on: MOLT-4 leukemia
[5] = tested on: SK-MEL-2 melanoma
[6] = tested on: SW-620 colon
[7] = tested on: RXF 393 renal
[8] = tested on: SK-MEL-28 melanoma
[9] = tested on: SF-295 CNS
[10] = tested on: SR leukemia
[11] = tested on: NCI-H23 lung
[12] = tested on: HS 578T breast
[13] = tested on: MDA-MB-435
[14] = tested on: UACC-257 melanoma
[15] = tested on: T-47D breast
[16] = tested on: BT-549 breast
[17] = tested on: HOP-92 NSCLC
[18] = tested on: SF-539 CNS
[19] = tested on: K-562 leukemia
[20] = tested on: HCT-116 colon
[21] = tested on: HOP-62 NSCLC
[22] = tested on: A498 renal
[23] = tested on: OVCAR-4 ovarian
[24] = tested on: SN12C renal
[25] = tested on: A549 NSCLC
[26] = tested on: TK-10 renal
[27] = tested on: CAKI-1 renal
[28] = tested on: MALME-3M melanoma
[29] = tested on: HCT-15 colon
[30] = tested on: HT29 colon
[31] = tested on: SF-268 CNS
[32] = tested on: OVCAR-5 ovarian
[33] = tested on: UO-31 renal
[34] = tested on: SNB-19 CNS
[35] = tested on: MDA-N
[36] = tested on: ACHN renal
[37] = tested on: HL-60(TB) leukemia
[38] = tested on: CCRF-CEM leukemia
[39] = tested on: RPMI-8226 leukemia
[40] = tested on: NCI-H226 lung
[41] = tested on: SK-MEL-5 melanoma
[42] = tested on: M14 melanoma
[43] = tested on: LOX IMVI melanoma
[44] = tested on: COLO 205 colon
[45] = tested on: IGROV1 ovarian
[46] = tested on: 786-0 renal
[47] = tested on: EKVX NSCLC
[48] = tested on: HCC-2998 colon
[49] = tested on: MDA-MB-231 breast
[50] = tested on: NCI-H460 lung
[51] = tested on: NCI/ADR-RES ovarian
[52] = tested on: U251 CNS
[53] = tested on: NCI-H522 lung
[54] = tested on: SK-OV-3 ovarian
[55] = tested on: PC-3 prostate
[56] = tested on: OVCAR-8 ovarian
[57] = tested on: MCF7 breast
[58] = tested on: DU-145 prostate
[59] = tested on: KM12 colon
[60] = tested on: LXFL 529 NSCLC
[61] = tested on: DMS 273 small cell lung
[62] = tested on: M19-MEL melanoma
[63] = tested on: SNB-78 CNS
[64] = tested on: KM20L2 colon
[65] = tested on: DLD-1 colon
[66] = tested on: XF 498 CNS

COc1ccc2c(c1)/c(=C/C#N)c1c3ccccc3[n+](C)n21
TGI [1]: 42.3 µM
TGI [2]: 9.21 µM
TGI [3]: 4.29 µM
TGI [4]: > 57.2 µM
TGI [5]: 36.1 µM
TGI [6]: > 39.2 µM
TGI [7]: 50.1 µM
TGI [8]: 14.3 µM
TGI [9]: 42.1 µM
TGI [10]: > 100000 nM
TGI [11]: 45.4 µM
TGI [12]: 50.4 µM
TGI [13]: 19.3 µM
TGI [14]: 19.3 µM
TGI [15]: 10.6 µM
TGI [16]: 26.1 µM
TGI [17]: 5.89 µM
TGI [18]: 11.8 µM
TGI [19]: > 69.8 µM
TGI [20]: 12.5 µM
TGI [21]: 29.6 µM
TGI [22]: 13.9 µM
TGI [23]: 22.9 µM
TGI [24]: 47.4 µM
TGI [25]: 16.2 µM
TGI [26]: 20.7 µM
TGI [27]: 47.3 µM
TGI [28]: 14.3 µM
TGI [29]: 59.8 µM
TGI [30]: 10.6 µM
TGI [31]: 30.5 µM
TGI [32]: 42.8 µM
TGI [33]: 36.9 µM
TGI [34]: 51.5 µM
TGI [35]: 40.9 µM
TGI [36]: 32 µM
TGI [37]: > 48.3 µM
TGI [38]: 13.1 µM
TGI [39]: 8.03 µM
TGI [40]: 21.4 µM
TGI [41]: > 44.8 µM
TGI [42]: 32.4 µM
TGI [43]: 28.6 µM
TGI [44]: 8.33 µM
TGI [45]: 31 µM
TGI [46]: > 70.1 µM
TGI [47]: 16.5 µM
TGI [48]: 6.83 µM
TGI [49]: 64.4 µM
TGI [50]: 32.9 µM
TGI [51]: > 100 µM
TGI [52]: 40.8 µM
TGI [53]: 20.4 µM
TGI [54]: > 100 µM
TGI [55]: 11.7 µM
TGI [56]: > 100 µM
TGI [57]: > 55.9 µM
TGI [58]: 8.59 µM
TGI [59]: 17.9 µM

CN(C)CC1CCC/C(=C\c2ccc(OC(=O)/C=C/c3ccc(Cl)cc3)cc2)C1=O (stereo not drawn)
TGI [1]: 19.1 µM
TGI [2]: 24.9 µM
TGI [3]: 12.4 µM
TGI [4]: 2.86 µM
TGI [5]: 25.1 µM
TGI [6]: 6.44 µM
TGI [7]: 4.08 µM
TGI [8]: 14.7 µM
TGI [9]: 19.7 µM
TGI [10]: 2870 nM
TGI [11]: 14.1 µM
TGI [12]: 24.6 µM
TGI [13]: 21.1 µM
TGI [14]: 32.6 µM
TGI [15]: 4.64 µM
TGI [16]: 14.2 µM
TGI [17]: 4.34 µM
TGI [18]: 5.79 µM
TGI [19]: 4.04 µM
TGI [20]: 11 µM
TGI [21]: 14.8 µM
TGI [22]: 16.3 µM
TGI [23]: 35.9 µM
TGI [24]: 12.8 µM
TGI [25]: 21.6 µM
TGI [26]: 4.73 µM
TGI [27]: 5.12 µM
TGI [28]: 16.3 µM
TGI [29]: 6.91 µM
TGI [30]: 7.12 µM
TGI [31]: 12.4 µM
TGI [32]: 25.7 µM
TGI [33]: 12.8 µM
TGI [34]: 13.9 µM
TGI [35]: 18.6 µM
TGI [36]: 5.73 µM
TGI [37]: 3.22 µM
TGI [38]: 3.39 µM
TGI [39]: 1.8 µM
TGI [40]: 20.2 µM
TGI [41]: 9.46 µM
TGI [42]: 20 µM
TGI [43]: 9.39 µM
TGI [44]: 2.79 µM
TGI [45]: 3.35 µM
TGI [46]: 3.05 µM
TGI [47]: 15.2 µM
TGI [48]: 13.1 µM
TGI [49]: 21 µM
TGI [50]: 18.1 µM
TGI [51]: 23 µM
TGI [52]: 9.97 µM
TGI [53]: 1.91 µM
TGI [54]: 50 µM
TGI [55]: 11.7 µM
TGI [56]: 19.3 µM
TGI [57]: 4.95 µM
TGI [58]: 25.5 µM
TGI [59]: 4.38 µM

CCO/C(O)=c1/s/c(=C(\C#N)c2nc3ccccc3[nH]2)n(-c2ccccc2)c1=N
TGI [1]: > 100 µM
TGI [2]: > 100 µM
TGI [3]: > 100 µM
TGI [4]: > 100 µM
TGI [5]: > 100 µM
TGI [6]: > 100 µM
TGI [60]: > 100 µM
TGI [7]: > 100 µM
TGI [8]: > 100 µM
TGI [9]: > 100 µM
TGI [11]: > 100 µM
TGI [14]: > 100 µM
TGI [17]: > 100 µM
TGI [18]: > 100 µM
TGI [19]: > 100 µM
TGI [20]: > 100 µM
TGI [21]: > 100 µM
TGI [61]: > 100 µM
TGI [22]: > 100 µM
TGI [23]: > 100 µM
TGI [62]: > 100 µM
TGI [24]: > 100 µM
TGI [25]: > 100 µM
TGI [26]: > 100 µM
TGI [27]: > 100 µM
TGI [28]: > 100 µM
TGI [29]: > 100 µM
TGI [63]: > 100 µM
TGI [64]: > 100 µM
TGI [30]: > 100 µM
TGI [31]: > 100 µM
TGI [32]: > 100 µM
TGI [33]: > 100 µM
TGI [34]: > 100 µM
TGI [36]: > 100 µM
TGI [37]: > 100 µM
TGI [38]: > 100 µM
TGI [40]: > 100 µM
TGI [41]: > 100 µM
TGI [42]: > 100 µM
TGI [43]: > 100 µM
TGI [44]: > 100 µM
TGI [45]: > 100 µM
TGI [46]: > 100 µM
TGI [47]: > 100 µM
TGI [50]: > 100 µM
TGI [52]: > 100 µM
TGI [53]: > 100 µM
TGI [54]: > 100 µM
TGI [65]: > 100000 nM
TGI [56]: > 100 µM
TGI [66]: > 100 µM

COc1cccc2c1C(=O)c1c(O)c3c(c(O)c1C2=O)C[C@@](O)(C(=O)CO)CC3OC1CC(NCCOCC(OC(C)=O)OC(C)=O)C(O)C(C)O1 (stereo partly drawn)
TGI [6]: 1.71 µM
TGI [60]: 12.2 µM
TGI [19]: > 100 µM
TGI [21]: 0.009 µM
TGI [23]: 31.1 µM
TGI [24]: 1.32 µM
TGI [25]: > 100 µM
TGI [26]: > 100 µM
TGI [27]: > 100 µM
TGI [29]: 0.0144 µM
TGI [34]: > 100 µM
TGI [37]: > 100 µM
TGI [38]: > 100 µM
TGI [45]: 3.04 µM
TGI [46]: 3.16 µM
TGI [52]: 1.23 µM
TGI [54]: 47.9 µM
TGI [65]: 380 nM
